In paper PMC6667231 (International journal of nutrition, 2019):

target: T1, CDK4/Cyclin D1 (Homo sapiens, UniProt P11802); experiment: cell-free […]-ATP kinase assay, P81 phosphocellulose plate; format: biochemical; settings: not given
T1 sequence (P11802 2-303): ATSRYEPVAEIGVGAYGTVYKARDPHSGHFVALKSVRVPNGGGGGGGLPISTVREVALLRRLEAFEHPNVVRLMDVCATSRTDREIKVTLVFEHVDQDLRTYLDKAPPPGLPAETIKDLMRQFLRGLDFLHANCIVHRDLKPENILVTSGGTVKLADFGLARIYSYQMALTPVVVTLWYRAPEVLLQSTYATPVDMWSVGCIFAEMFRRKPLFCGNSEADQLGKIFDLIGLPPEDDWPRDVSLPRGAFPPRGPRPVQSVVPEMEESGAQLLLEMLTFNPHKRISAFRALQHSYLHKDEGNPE
T1 sequence (P24385 whole entry partner): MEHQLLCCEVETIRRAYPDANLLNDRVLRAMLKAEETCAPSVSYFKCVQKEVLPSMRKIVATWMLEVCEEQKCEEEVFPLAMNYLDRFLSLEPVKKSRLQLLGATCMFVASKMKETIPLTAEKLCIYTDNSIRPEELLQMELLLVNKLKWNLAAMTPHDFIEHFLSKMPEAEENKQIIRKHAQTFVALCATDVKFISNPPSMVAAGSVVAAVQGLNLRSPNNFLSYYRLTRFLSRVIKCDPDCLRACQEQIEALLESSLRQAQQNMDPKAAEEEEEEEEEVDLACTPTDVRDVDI

| IC50 | SMILES |
| --- | --- |
| 15.6 µM | COc1c(O)cc2oc3cc4c(c(O)c3c(=O)c2c1CC=C(C)C)CCC(C)(C)O4 [3-isomangostin] |
| 12.8 µM | COc1c(O)cc2oc3cc(O)c(CC=C(C)C)c(O)c3c(=O)c2c1CCC(C)(C)O [garcinone D] |
| 8.5 µM | COc1c(O)cc2oc3cc(O)c(CC=C(C)C)c(O)c3c(=O)c2c1CC=C(C)C [α-mangostin] |
| 6.2 µM | CC(C)=CCc1c(O)cc2oc3cc(O)c(O)c(CC=C(C)C)c3c(=O)c2c1O [γ-mangostin] |

target: T1, CDK4/Cyclin D1; experiment: as above; format: biochemical; settings: read-out: 40 μM

| activity at 40 µM | SMILES |
| --- | --- |
| 81.4 ± 6.38% | CC(C)=CCc1c(O)c(CC=C(C)C)c2oc3c(O)cccc3c(=O)c2c1O [8-desoxygartanin] |
| 65.7 ± 7.94% | CC(C)=CCc1c(O)cc2oc3cc(O)c(O)c(CCC(C)(C)O)c3c(=O)c2c1O [garcinone C] |
| 80.2 ± 10.2% | CC(C)=CCc1c(O)c(CC=C(C)C)c2oc3c(O)ccc(O)c3c(=O)c2c1O [gartanin] |
| 55 ± 2.88% | COc1cc2oc3cc(O)c(OC)c(CC=C(C)C)c3c(=O)c2c(O)c1CC=C(C)C [β-mangostin] |
